Data on 9 compounds can be found in patent publication US9593084B2 (Parion Sciences, Inc., priority 2012, dated 2017).

Structures are written as SMILES. Marks after values point to notes of the source that are not given here.

Test [1] addresses T1, epithelial sodium channel (Canis lupus familiaris, UniProt A0A8I3MKE6+A0A8I3Q679+Q95165).
T1 construct: endogenous in cells; host or cells: primary canine bronchial epithelial cells cultured at air-liquid interface
T1 sequence (A0A8I3Q679 1-649): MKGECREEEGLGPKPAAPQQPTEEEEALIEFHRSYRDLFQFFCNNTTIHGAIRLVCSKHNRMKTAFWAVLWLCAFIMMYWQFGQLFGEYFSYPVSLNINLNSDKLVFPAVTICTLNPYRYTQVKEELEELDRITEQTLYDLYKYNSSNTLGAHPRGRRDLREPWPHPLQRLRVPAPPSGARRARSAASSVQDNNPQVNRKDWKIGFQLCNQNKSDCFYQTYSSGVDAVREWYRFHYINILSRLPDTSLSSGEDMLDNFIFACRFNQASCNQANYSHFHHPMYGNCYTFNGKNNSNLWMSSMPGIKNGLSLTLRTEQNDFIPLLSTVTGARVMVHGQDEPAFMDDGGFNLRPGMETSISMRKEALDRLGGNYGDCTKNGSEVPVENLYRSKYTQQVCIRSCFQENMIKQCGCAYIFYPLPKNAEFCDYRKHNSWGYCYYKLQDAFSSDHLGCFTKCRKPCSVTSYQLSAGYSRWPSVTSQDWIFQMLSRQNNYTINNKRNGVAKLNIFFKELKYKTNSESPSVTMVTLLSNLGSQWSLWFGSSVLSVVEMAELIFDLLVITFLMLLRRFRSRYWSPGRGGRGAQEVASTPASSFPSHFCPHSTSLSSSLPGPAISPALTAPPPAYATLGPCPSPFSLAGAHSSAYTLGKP
T1 sequence (Q95165 1-641): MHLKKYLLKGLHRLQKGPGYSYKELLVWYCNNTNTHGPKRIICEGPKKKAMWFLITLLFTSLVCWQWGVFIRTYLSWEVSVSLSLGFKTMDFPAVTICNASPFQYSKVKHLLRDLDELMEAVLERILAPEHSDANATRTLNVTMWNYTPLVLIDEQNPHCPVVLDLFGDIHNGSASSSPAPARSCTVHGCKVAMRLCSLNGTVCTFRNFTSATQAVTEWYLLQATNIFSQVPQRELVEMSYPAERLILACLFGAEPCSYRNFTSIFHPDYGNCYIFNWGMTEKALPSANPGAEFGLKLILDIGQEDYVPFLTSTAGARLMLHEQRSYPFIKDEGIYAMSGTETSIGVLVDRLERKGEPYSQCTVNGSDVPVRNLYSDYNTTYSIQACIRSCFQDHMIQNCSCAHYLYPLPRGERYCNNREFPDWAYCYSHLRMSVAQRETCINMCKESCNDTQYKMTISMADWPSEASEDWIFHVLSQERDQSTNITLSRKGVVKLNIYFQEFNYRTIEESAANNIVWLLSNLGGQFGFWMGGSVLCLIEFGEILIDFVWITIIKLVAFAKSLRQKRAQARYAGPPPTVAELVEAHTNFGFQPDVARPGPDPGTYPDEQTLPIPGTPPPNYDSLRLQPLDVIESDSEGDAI
T1 sequence (A0A8I3MKE6 1-646): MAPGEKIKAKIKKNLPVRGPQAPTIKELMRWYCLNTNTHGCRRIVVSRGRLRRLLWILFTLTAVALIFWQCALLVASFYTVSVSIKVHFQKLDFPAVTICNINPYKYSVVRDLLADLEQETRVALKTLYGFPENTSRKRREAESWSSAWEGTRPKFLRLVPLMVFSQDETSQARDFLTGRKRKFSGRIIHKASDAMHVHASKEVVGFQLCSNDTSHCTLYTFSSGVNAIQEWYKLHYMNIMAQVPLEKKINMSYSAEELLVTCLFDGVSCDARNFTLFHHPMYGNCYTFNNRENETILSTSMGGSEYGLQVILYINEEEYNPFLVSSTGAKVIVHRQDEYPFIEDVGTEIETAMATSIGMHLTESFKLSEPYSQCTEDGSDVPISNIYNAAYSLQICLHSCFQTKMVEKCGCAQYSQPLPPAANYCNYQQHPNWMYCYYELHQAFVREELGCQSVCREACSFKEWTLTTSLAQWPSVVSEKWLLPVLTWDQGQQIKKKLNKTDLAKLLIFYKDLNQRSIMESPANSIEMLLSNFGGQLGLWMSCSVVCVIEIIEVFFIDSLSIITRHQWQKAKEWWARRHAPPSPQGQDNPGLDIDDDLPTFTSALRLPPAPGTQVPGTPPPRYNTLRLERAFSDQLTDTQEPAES
Kind of test: Inhibition of short-circuit current (ISC) in airway epithelial monolayers in Ussing chambers. The settings on record: canine bronchial epithelial cells, short-circuit current; read-out: Potency of Sodium Channel Blockade IC50. It is filed as cell-based, canine. The method, then:
One assay used to assess mechanism of action and/or potency of the compounds of the present invention involves the determination of lumenal drug inhibition of airway epithelial sodium currents measured under short circuit current (ISC) using airway epithelial monolayers mounted in Using chambers. Cells obtained from freshly excised human, dog, sheep or rodent airways are seeded onto porous 0.4 micron Snapwelff Inserts (CoStar), cultured at air-liquid interface (ALI) conditions in hormonally defined media, and assayed for sodium transport activity (ISC) while bathed in Krebs Bicarbonate Ringer (KBR) in Using chambers. All test drug additions are to the lumenal bath with half-log dose addition protocols (from 1×10^−11 M to 3×10^−5 M), and the cumulative change in ISC (inhibition) recorded. All drugs are prepared in dimethyl sulfoxide as stock solutions at a concentration of 1×10^−2 M and stored at −20° C. […] After the maximal concentration ([…]) is administered, the lumenal bath is exchanged three times with fresh drug-free KBR solution, and the resultant ISC measured after each wash for approximately 5 minutes in duration. Reversibility is defined as the percent return to the baseline value for sodium current after the third wash. All data from the voltage clamps are collected via a computer interface and analyzed off-line.
Dose-effect relationships for all compounds are considered and analyzed by the Prism 3.0 program.

The next test relates to Sheep MCC. The test is described as follows: Mucociliary clearance (MCC) studies in sheep. To be noted: sheep. The format is in vivo. How it is done:
The animal model that has been used most often to measure changes in MCC is the sheep model. The effect of compounds for enhancing mucociliary clearance (MCC) can be measured using an in vivo model described by Sabater et al., Journal of Applied Physiology, 1999, pp. 2191-2196, incorporated herein by reference.
In these studies, adult sheep were restrained and nasally intubated with an endotracheal tube. Aerosolized test articles were administered over 10-15 minutes to sheep. Radiolabeled ^99mTc-sulfur colloid (TSC, 3.1 mg/mL; containing approximately 20 mCi) was then administered at a specified time four or eight hours after test article. The radiolabeled aerosol was administered through the endotracheal tube for about 5 minutes. The sheep were then extubated, and total radioactive counts in the lung were measured every 5 minutes for a 1-hour observation period. The rate of radiolabel clearance from the lung is representative of the MCC rate in the animal. The advantage of this system is that it closely simulates the human lung environment. The model also allows for the collection of simultaneous PK/PD information through plasma and urine sampling over the test period. There are also several techniques to measure the drug concentrations on the airway surface during the MCC measurements. These include the collection of exhaled breath condensates or a filter paper method to obtain ASL via bronchoscopy.
The ovine model described above was used to evaluate the in vivo effects (efficacy/durability) of aerosol-delivered test agent on MCC. Treatments consisting of either 4 mL of test agent or test agent in combination with HS were tested. To determine if combining HS with test agent enhanced MCC, HS was administered immediately following test agent administration. Test solutions were aerosolized using a Raindrop nebulizer at a flowrate of eight liters per minute and connected to a dosimetry system consisting of a solenoid valve and a source of compressed air (20 psi). The deposited dose of drug in sheep lungs after an aerosol administration using the Raindrop nebulizer is estimated to be 8-15% of the dose. Using a Raindrop nebulizer, radiolabeled TSC was administered over approximately 3 minutes either 4 or 8 hours after drug treatment to evaluate efficacy/durability. Radioactive counts were measured in a central region in the right lung at 5 min intervals for one hour with a gamma camera. Three methods of analysis were utilized, 1) initial rate of clearance (slope) over the first 30 min fitted using linear regression 2) area under the curve for % clearance over time over one hour, and 3) the maximum clearance obtained in one hour.

Setting [2] is: aerosol, 0.24 nmol/kg (3 μM), MCC at 8 h post-dose.

As to `N=C(NCCCCc1ccc(C[C@H](N)C(=O)O)c2ccccc12)NC(=O)c1nc(Cl)c(N)nc1N` [Compound 16, (S)-2-amino-3-(4-(4-(3-(3,5-diamino-6-chloropyrazine-2-carbonyl)guanidino)butyl)naphthalen-1-yl)propanoic acid], in test [1], the IC50 – broadly, the concentration that gives 50% inhibition – was 79.6 nM.
Same read-out and setting: under `CN(C)CCCc1ccc(NC(=O)[C@@H](N)Cc2ccc(CCCCNC(=N)NC(=O)c3nc(Cl)c(N)nc3N)c3ccccc23)cc1` [Compound 23, (S)-3,5-diamino-N—(N-(4-(4-(2-amino-3-(4-(3-(dimethylamino)propyl)phenylamino)-3-oxopropyl)naphthalen-1-yl)butyl)carbamimidoyl)-6-chloropyrazine-2-carboxamide] stands 20.7 nM; under `CCCCCCN(CCCc1ccc(NC(=O)[C@@H](N)Cc2ccc(CCCCNC(=N)NC(=O)c3nc(Cl)c(N)nc3N)c3ccccc23)cc1)C[C@H](O)[C@@H](O)[C@H](O)[C@H](O)CO` [Compound 28, 3,5-diamino-N—(N-(4-(4-((S)-2-amino-3-(4-(3-(hexyl((2S,3R,4R,5R)-2,3,4,5,6-pentahydroxyhexyl)amino)propyl)phenylamino)-3-oxopropyl)naphthalen-1-yl)butyl)carbamimidoyl)-6-chloropyrazine-2-carboxamide], 7.4 nM.
Same read-out and setting: next, `N=C(NCCCCc1ccc(C[C@H](N)C(=O)Nc2ccc(CCCNC[C@H](O)[C@@H](O)[C@H](O)[C@H](O)CO)cc2)c2ccccc12)NC(=O)c1nc(Cl)c(N)nc1N` [Compound 38, 3,5-diamino-N—(N-(4-(4-((S)-2-amino-3-oxo-3-(4-(3-((2S,3R,4R,5R)-2,3,4,5,6-pentahydroxyhexylamino)propyl)phenylamino)propyl)naphthalen-1-yl)butyl)carbamimidoyl)-6-chloropyrazine-2-carboxamide]: 25.4 nM.
`CN(C)CCCCCCc1ccc(NC(=O)[C@@H](N)Cc2ccc(CCCCNC(=N)NC(=O)c3nc(Cl)c(N)nc3N)c3ccccc23)cc1` [Compound 43, (S)-3,5-diamino-N—(N-(4-(4-(2-amino-3-(4-(6-(dimethylamino)hexyl)phenylamino)-3-oxopropyl)naphthalen-1-yl)butyl)carbamimidoyl)-6-chloropyrazine-2-carboxamide]: the IC50 in test [1] is 50.1 nM.
For `N=C(NCCCCc1ccc(C[C@H](N)C(=O)Nc2ccc(CCCCCCNC[C@H](O)[C@@H](O)[C@H](O)[C@H](O)CO)cc2)c2ccccc12)NC(=O)c1nc(Cl)c(N)nc1N` [Compound 53, 3,5-diamino-N—(N-(4-(4-((S)-2-amino-3-oxo-3-(4-(6-((2S,3R,4R,5R)-2,3,4,5,6-pentahydroxyhexylamino)hexyl)phenylamino)propyl)naphthalen-1-yl)butyl)carbamimidoyl)-6-chloropyrazine-2-carboxamide], the IC50 in test [1] was determined as 15.5 nM.
Regarding `CCCCCCN(CCCCCCc1ccc(NC(=O)[C@@H](N)Cc2ccc(CCCCNC(=N)NC(=O)c3nc(Cl)c(N)nc3N)c3ccccc23)cc1)C[C@H](O)[C@@H](O)[C@H](O)[C@H](O)CO` [Compound 58, 3,5-diamino-N—(N-(4-(4-((S)-2-amino-3-(4-(6-(hexyl((2S,3R,4R,5R)-2,3,4,5,6-pentahydroxyhexyl)amino)hexyl)phenylamino)-3-oxopropyl)naphthalen-1-yl)butyl)carbamimidoyl)-6-chloropyrazine-2-carboxamide], the IC50 in test [1] turned out to be 10.6 nM.
Regarding `N=C(NCCCCc1ccc2cc(C[C@H](N)C(=O)O)ccc2c1)NC(=O)c1nc(Cl)c(N)nc1N` [Compound 80, (S)-2-amino-3-(6-(4-(3-(3,5-diamino-6-chloropyrazine-2-carbonyl)guanidino)butyl)naphthalen-2-yl)propanoic acid], the IC50 in test [1] came to 19.4 nM.
On to `N=C(NCCCCc1ccc(C[C@@H](N)C(=O)Nc2ccc(CCCN(C[C@H](O)[C@@H](O)[C@H](O)[C@H](O)CO)C[C@H](O)[C@@H](O)[C@H](O)[C@H](O)CO)cc2)c2ccccc12)NC(=O)c1nc(Cl)c(N)nc1N` [Compound 152, 3,5-diamino-N—(N-(4-(4-((R)-2-amino-3-(4-(3-(bis((2S,3R,4R,5R)-2,3,4,5,6-pentahydroxyhexyl)amino)propyl)phenylamino)-3-oxopropyl)naphthalen-1-yl)butyl)carbamimidoyl)-6-chloropyrazine-2-carboxamide], for which the “duration of action on MCC vs. vehicle” value in the test on Sheep MCC (8 hours post dose) was “enhanced duration action of MCC vs. vehicle”. For the same compound, in the test on Sheep MCC (setting [2]), the “AUC (% Cl-h)” value is reported as 17.4* (4) % Cl-h and the “Initial Slope (8.0-8.5 h)” value is 37.5* (4).
